According to PMC3886901, “Vestigialization of an Allosteric Switch: Genetic and Structural Mechanisms for the Evolution of Constitutive Activity in a Steroid Hormone Receptor” (PLoS Genetics, 2014):

Tested on: T1, AncLophoSR (ancestral lophotrochozoan steroid receptor, ML reconstruction; GenBank KC261633)
T1 construct: resurrected LBD with the hinge domain and C-terminus of CgER, Gal4-DBD fusion
Test: Gal4-DBD fusion dual luciferase reporter assay in transfected CHO-K1 cells
Format: cell-based, synthetic construct

**Q.** Which EC50 does the source give for `C[C@]12CC[C@@H]3c4ccc(O)cc4CC[C@H]3[C@@H]1CC[C@@H]2O` [17β-estradiol] here?
**A.** 12 nM
